From publication PMC12040169 (PLOS Biology, 2025) come the findings set out here.

The structures appear in SMILES notation.

This data set is described as follows: in vitro. The note with it: human, hela cells, % viability.

In general, viability refers to a read-out of living cells in per cent, often relative to untreated cells. As to `Sc1nnc(C2CCCC2)n1CC1CCCO1` (stereo not shown) [CBK288413], the viability at 28.5 h, 10 µM was 107%.
With `CN(C)CCCNc1c(N)c(=O)oc2ccccc12` [CBK261468], the viability at 28.5 h, 10 µM is 94.3%.
Still for that read-out and setting: as for `COc1cc(OC)cc(C(=O)Nc2ccc(S(=O)(=O)Nc3nccs3)cc2)c1` [CBK261300], the figure is 103%.
Same read-out and setting: as for `C[N+](C)(C)CCC(=O)CCC(=O)O` [CBK262012I], the figure is 102%; as for `N#Cc1ccc(NCC(=O)Nc2ncn(Cc3cccnc3)n2)cc1` [CBK306343], 94.3%.
Regarding `Cc1ccccc1C1(O)CCN(CC(O)c2ccc(F)cc2)CC1` (stereo not shown) [CBK282471], the viability at 28.5 h, 10 µM turned out to be 87.7%.
On the same count and under the same terms, for `CN1CCC[C@H]1C(=O)N1CCN(c2ncccn2)CC1` [CBK144528] the value was 93.4%; for `Cn1ncc2c1CCCN(C(=O)Cc1ccc(Cl)cc1)C2` [CBK285231], 106%; for `COc1ccc(-c2c(-c3ccc(OCc4cnn(-c5ccccc5)c4)c(C)c3O)n[nH]c2C)cc1` [CBK265006], 92.5%.
With `O=C1COc2ccccc2C(=O)N[C@@H]2CCOC[C@@H]2C/C=C/C[C@H]2[C@H](CCCN2CCO)N1` [CBK292149], the viability at 28.5 h, 10 µM was found to be 106%.
In the case of `Cc1nn(C)c(N2CCNCC2)c1NC(=O)c1ccccc1` [CBK050257T], the viability at 28.5 h, 10 µM amounted to 99%.
As to `O=C(O)CC(CC(=O)N1CCN(Cc2ccc3c(c2)OCO3)CC1)c1ccccc1` (stereo not shown) [CBK074769], the viability at 28.5 h, 10 µM worked out at 96%.
On the same count and under the same terms, for `CC1(C)CC(=O)c2sc(NC(=O)Cc3ccc(Cl)c(Cl)c3)nc2C1` [CBK144103] the value was 93.7%; for `Clc1ccc(CN2CCN(c3nccnc3OCc3cccnc3)CC2)cc1Cl` [CBK083128T], 105%; for `CN1CCN(C(=O)CN(C)S(=O)(=O)c2ccc3ccccc3c2)CC1` [CBK267053], 96.4%.
For `Cc1nc(SCC(=O)c2cc(Cl)ccc2Cl)c2ccccc2n1` [CBK297543], the viability at 28.5 h, 10 µM was 100%.
On the same count and under the same terms, for `O=C(C1CC2C=CC1C21CC1)N1CCC(Oc2cccnc2)CC1` (stereo not shown) [CBK281501] the value was 101%; for `O=C(Nc1ccc(O)cc1)c1ccc(N2C(=O)c3cccc([N+](=O)[O-])c3C2=O)cc1` [CBK262600], 89.8%.
The same measure, in the same setting: for `Cc1nonc1CC(=O)N1C2CCC1CC(c1ccc(F)cc1)C2` (stereo not shown) [CBK283739] the value was 89.1%.
On the same count and under the same terms, for `O=S(=O)(c1cc(Cl)sc1Cl)N1CCN(Cc2ccc3c(c2)OCO3)CC1` [CBK074743] the value was 92.6%; for `CC(C)(C)OC(=O)N1CCC(Oc2nccnc2OCc2ccc(Cl)cc2F)CC1` [CBK163968], 104%; for `COc1ccc(-c2ccc(OC3CCNCC3)cc2)c(OC)c1` [CBK093816T], 91.2%.
In the case of `COCCn1c(SCc2cn3cc(Br)ccc3n2)nc(C)c1C` [CBK305704], the viability at 28.5 h, 10 µM was found to be 83.1%.
On the same count and under the same terms, for `CCN(Cc1ccncc1)C(=O)Nc1ccc(N(CC)CC)cc1` [CBK155141] the value was 90.3%; for `COc1ccc(/C(N)=N/OC(=O)C(C)Oc2ccc(C(C)(C)C)cc2)cc1OC` (stereo not shown) [CBK267378], 94.9%.
Still for that read-out and setting: as for `O=C(NCc1cccnc1)c1ncoc1-c1cccs1` [CBK283974], the figure is 87.5%.
The same measure, in the same setting: as for `Cn1ncc2c(NCC(=O)N3CCNCC3)nc(C(C)(C)C)nc21` [CBK307702], the figure is 120%; as for `CC(=O)NCCSc1cc(NC(C)C)ncn1` [CBK105293], 96.8%; as for `Cc1ccc(NC(=O)C2CCCN2S(=O)(=O)c2ccc(F)cc2)cc1F` (stereo not shown) [CBK110164], 91.6%.
Consider `CCN1CCN(c2ccc(C(=O)OC)cc2NC(=O)c2ccccc2C)CC1` [CBK269902], for which the viability at 28.5 h, 10 µM is 92.9%.
As for `CN1CC[C@]2(c3ccc4c(c3)nnn4C)CC[C@@H](NC(=O)Nc3cccc(C(F)(F)F)c3F)C[C@H]12` [CBK067410], the viability at 28.5 h, 10 µM turned out to be 99.9%.
On the same count and under the same terms, for `Cc1cnc2[nH]c(C3CCCN(C(=O)c4cnn(C)c4C)C3)cc2c1` (stereo not shown) [CBK285171] the value was 101%; for `Cc1cc(=O)n2c3c(cc(S(=O)(=O)NC4CC4)cc13)CC2` [CBK218959], 95.9%; for `CC(C)C[C@@H]1N[C@H](C(=O)NCc2cccnc2)Cc2c[nH]c3cccc1c23` [CBK289418], 90%.
The same measure, in the same setting: as for `CCOc1cc(OCC)cc(C(=O)N2CCC3(CC2)CC(=O)c2ccc(N)cc2O3)c1` [CBK168018], the figure is 111%; as for `CC1(C)CC(=O)C2=C(C1)N=C(Nc1nc3ccccc3o1)NC2c1ccccn1` (stereo not shown) [CBK269978], 88.8%; as for `O=C(O)[C@H](Cc1ccccc1)Nc1ncnc2[nH]cnc12` [CBK287090], 87%.
Same read-out and setting: for `COc1ccccc1C(=O)NC1CN2CCC1CC2` (stereo not shown) [CBK018475C] the value was 75.5%; for `Cc1ccc(C(=O)O)cc1N1C(=O)c2ccc(S(=O)(=O)c3ccc(C(=O)O)cc3)cc2C1=O` [CBK262747], 96.1%.
Consider `OC(CNCCc1ccccc1)CN1c2ccccc2Sc2ccccc21` (stereo not shown) [CBK264017G], for which the viability at 28.5 h, 10 µM came to 97.6%.
Still for that read-out and setting: for `CC(=O)Nc1ccc(-c2ccc(C(=O)N3CCN(C(=O)c4ccco4)CC3)cn2)cc1` [CBK160186] the value was 85.8%; for `Cc1ccc(Nc2nc3c(c(=O)[nH]2)CCCC3)cc1` [CBK287895], 100%.
As for `Cc1cccc(NC(=O)NCc2ccccn2)c1` [CBK269422], the viability at 28.5 h, 10 µM came to 92.3%.
Same read-out and setting: for `CC(=O)c1ccc(S(=O)(=O)Nc2ccc(C)cc2)cc1` [CBK045380] the value was 108%; for `COc1ccc(C(C)C)cc1-c1nc2ncccc2cc1NC(=O)C(C)C` [CBK073659], 87.8%.
For `CC(C)(C)OC(=O)N(Cc1cccs1)S(C)(=O)=O` [CBK019338], the viability at 28.5 h, 10 µM stood at 94.1%.
Consider `Cc1cc2cc(NC(=O)CCC3C(=O)NC(=O)NC3=O)cc(Cl)c2o1` [CBK285826], for which, where the note is “bulk resorufin, single well”, the viability at 28.5 h, 10 µM is 93%.
For the compound `O=C(c1cc(-c2ccncc2)nc2ccc(Cl)cc12)N1CCN(Cc2ccc3c(c2)OCO3)CC1` [CBK267765], the viability at 28.5 h, 10 µM worked out at 85.4%.
`Nc1ncc(-c2cccc3ncccc23)nc1NC1CCOCC1` [CBK063852]: the viability at 28.5 h, 10 µM is 101%.
Same read-out and setting: for `O=C(NCC1CCCO1)c1ccccc1Sc1ccc([N+](=O)[O-])cc1Cl` (stereo not shown) [CBK266041] the value was 88.8%; for `O=C(NCCN1CCOCC1)c1ccc2nccnc2c1` [CBK268806], 108%.
Same read-out and setting: as for `CCS(=O)(=O)c1ccc(C(=O)Nc2nc3c(F)cc(F)cc3s2)cc1` [CBK287727], the figure is 106%; as for `Cc1ccc(C(=O)N2CCC3(CC2)CNC(=O)c2ccccc2O3)o1` [CBK285328], 88.3%.
For the compound `Cc1c(C(=O)Nc2ccc(S(=O)(=O)NCC3CCCO3)cc2)cccc1[N+](=O)[O-]` (stereo not shown) [CBK267533], the viability at 28.5 h, 10 µM is 94.5%.
The same measure, in the same setting: as for `c1cncc(Nc2cccc(-c3cnc4ccccc4c3)n2)c1` [CBK037638], the figure is 98.8%; as for `CCC(CN1CCN(C)CC1)NC(=O)C1(c2cccc(F)c2)CC1` (stereo not shown) [CBK282786], 110%; as for `CC(C)(C)c1ccc(O)c(NC(=S)NC(=O)c2ccccc2I)c1` [CBK264399], 114%.
Same read-out and setting: for `COC(=O)[C@@H]1CN(C(=O)c2ccc(OC)cc2)CCN1C(C)=O` [CBK289578] the value was 97.5%; for `Cc1ccc(S(=O)(=O)NC(Cc2ccccc2)C(=O)O)cc1` (stereo not shown) [CBK217645], 102%.
Same read-out and setting: as for `Fc1ccc(Oc2nccnc2N2CCN(CC3CC3)CC2)cc1` [CBK083033T], the figure is 91.8%; as for `O=C(O)/C=C/c1cccc(NS(=O)(=O)c2ccc(C(=O)O)cc2)c1` [CBK262262], 88%.
`Cc1n[nH]c(NCc2cccc(Cl)c2Cl)n1` [CBK288037]: the viability at 28.5 h, 10 µM was 107%.
Same read-out and setting: as for `Cc1ccc(CN(C2CCN(C)CC2)S(=O)(=O)c2ccccc2F)cc1` [CBK160444T], the figure is 90.8%; as for `CN(Cc1ccccc1)c1nccnc1-c1cccnc1` [CBK037414], 93.5%.
Still for that read-out and setting: for `O=C1CN(Cc2nc(-c3cccc(C(F)(F)F)c3)no2)CCN1` [CBK306038] the value was 92.9%.
On to `O=C(OCc1ccccc1)N1CCC2(CC1)CN(c1ccc([N+](=O)[O-])cn1)CCO2` [CBK161111T], for which the viability at 28.5 h, 10 µM was 92%.
On the same count and under the same terms, as for `O=C(NCc1nnc(-c2cccs2)o1)C1(c2cccc(F)c2)CC1` [CBK284639], the figure is 90.2%; as for `COc1cccc(C2C=C(c3cccnc3)Nc3ncnn32)c1OC` (stereo not shown) [CBK288062], 95.1%; as for `CCc1nc2c(OCc3ccc(Cl)cc3)cccn2c1N(C=O)CC(=O)N(C)C` [CBK147518], 96.4%.
Same read-out and setting: as for `O=C(Nc1ccccc1)c1ccc(-c2ccccc2)cc1` [CBK261346], the figure is 107%; as for `N#Cc1ccc(CNC(=O)c2ccc3[nH]ccc3c2)cc1` [CBK149078], 87.8%.
Consider `O=C(O)CC1C(=O)NCCN1Cc1c(F)cccc1Cl` (stereo not shown) [CBK287157], for which the viability at 28.5 h, 10 µM came out at 88.6%.
Still for that read-out and setting: as for `NC(=O)c1c(NC(=O)CCN2C(=O)c3cccc([N+](=O)[O-])c3C2=O)sc2c1CCCC2` [CBK263132], the figure is 105%; as for `CCc1nc(COC(=O)C2CCN(C(=O)c3ccc(F)cc3)CC2)cs1` [CBK305725], 111%.
Consider `Cc1cc(-c2nnc(SCc3ccc(Cl)cc3)n2C)no1` [CBK067720], for which the viability at 28.5 h, 10 µM amounted to 112%.
Same read-out and setting: for `O=C1NCC2(C/C=C/CCOc3ccccc31)CCN(C(=O)CCN1CCCC1=O)CC2` [CBK292016] the value was 99.3%; for `O=C(O)C(Cc1c[nH]cn1)N1C(=O)C2C3C=CC(C3)C2C1=O` (stereo not shown) [CBK286705], 88%.
Same read-out and setting: for `CC(CN1CCCCC1)OC(=O)COc1ccc(F)cc1` (stereo not shown) [CBK058066C] the value was 93.6%; for `CCc1cnc(CN(C)C2CCN(CC(=O)Nc3cccnc3)C2)o1` (stereo not shown) [CBK305358], 92%.
